# In patent US9006517B2, “Methods and compositions for plant pest control” (Monsanto Technology LLC, priority 2008, dated 2015):
# Read-outs that look alike come from different tables or passages of the source.
# What was measured:
# [1] = test system: C. elegans L1 and L4 larvae; experiment: In vitro nematicidal efficacy of methylketones on C. elegans larvae; assay type: cell-based; details: Caenorhabditis elegans
# Method: (§1) The example illustrates the surprising nematicidal efficacy of various methylketones. Methylketones of various chain lengths were tested in vitro against C. elegans L1 and L4 larvae and M. incognita pre-parasitic J2 larvae, the dispersal larval stage found in the soil. […] IC30 is defined as the concentration of the methylketone at which 30 percent of the nematodes are killed after an exposure of 4 hours for C. elegans and 24 hours for M. incognita.
# [2] = test system: M. incognita pre-parasitic J2 larvae; experiment: In vitro nematicidal efficacy of methylketones on M. incognita J2 larvae; assay type: cell-based; details: Meloidogyne incognita, read-out: IC30 M. incognita vs. J2
# Method: as §1
# [3] = test system: root knot nematode (M. incognita); experiment: Greenhouse whole plant assay, root knot nematode infection of tomato in sand; assay type: in vivo; details: for % Control: control of nematode-induced galling; for % Galled Roots: soil application before inoculation, harvest 21 days, no compound added: 60; for nematode control (in words): M. incognita, greenhouse, 40 and 8 kg/ha
# Method: (§2) Whole plant assays were used to determine the efficacy of the methylketones on the infection of soybean plants and tomato plants by nematodes, H. glycines and M. incognita, respectively. The seeds were planted in 100 percent sand in two-inch square plastic pots and grown to a sufficient size for treatment. […] Following methylketone treatment, nematodes were inoculated into each pot and for soybeans are then incubated for 28 days before harvest and for tomatoes incubated 21 days before harvest.
# (§3) To each of four pots, five milliliters of the appropriate chemical solution is applied to the surface making sure to avoid contact with the base of the plant. Immediately following the chemical application, the pot surface is wetted sufficiently to water in the chemical. One milligram of chemical per four pots is approximately equivalent to one kilogram per hectare of chemical. A standard test uses four replications. For rates above 2 kg/ha, the desired amount of chemical is weighed into a 30 ml vial (example: 8 kg/ha rate=8 mg chemical in 30 ml vial). The chemical is dissolved in 2 ml of an appropriate solvent, generally acetone. For rates below 2 kg/ha, 2 milligrams of chemistry is weighed into the vial and dissolved in 2 ml of the solvent. The appropriate amount of chemical concentrate is then applied into a separate 30 ml vial and solvent is added to bring the volume to 2 ml (example 0.5 kg/ha=0.5 ml of concentrate+1.5 ml solvent). Each dissolved concentrate is then brought to a total of 20 milliliters using 0.05% Triton X-100 surfactant solution.
# (§4) Nematode eggs, either SCN or RKN, are added to distilled water to create a concentration of 1000 vermiform eggs per […] of water. At least four hours after chemical treatment the eggs are applied to the treated pots plus non-treated check plants. A small hole about 1 cm deep is punched into the pot surface. One milliliter of the nematode egg slurry is applied into the hole. Immediately afterwards the hole is gently covered. Watering of the test plants is then restricted to a minimum volume needed to prevent wilting for a period of 24 hours. After the 24 hour restricted watering, normal sub-irrigation watering is done for the duration of the test.
# The 2-undecanone, 2-tridecanone, and 2-pentadecanone are tested in greenhouse studies against M. incognita infection of tomato roots in sand. […] Shown in Table 2 is a high level of nematicidal activity of various methylketones observed against root knot nematode (M. incognita) inoculated into treated pots containing tomato plants. […] The listed kilograms/hectare (kg/ha) rating is based upon the surface area of the test pots; 1 kg/ha equates to about 1.65 mg compound per kilogram of soil in these assays.
# [4] = test system: soybean cyst nematode (H. glycines); experiment: Greenhouse whole plant assay, soybean cyst nematode infection of soybean; assay type: in vivo; details: for % Control: relative to the non-treated; for #cysts/plant: soil drench prior to inoculation, harvest 28 days, no compound added: 49
# Method: as §2, §3, §4
# 2-tridecanone was also assayed in the greenhouse for control of soybean cyst nematode (H. glycines) in soybeans (Table 3). Nematode control (#cysts/plant) is observed at 40 kg/ha (96% control relative to the non-treated) and 8 kg/ha (80% control relative to the non-treated) when 2-tridecanone was applied as a soil drench prior to nematode inoculation.
# [5] = concentration at which 30 percent of the nematodes are killed, exposure 4 hours, L1 larvae, read-out: IC30 C. elegans vs. L1
# [6] = concentration at which 30 percent of the nematodes are killed, exposure 4 hours, L4 larvae, read-out: IC30 C. elegans vs. L4
# [7] = concentration at which 30 percent of the nematodes are killed, exposure 24 hours, J2 larvae
Structure (SMILES),"IC30 [1, 5] [µg/mL]","IC30 [1, 6] [µg/mL]","IC30 [2, 7] [µg/mL]",% Control ([3]; rate 8 kg/ha) [%],% Galled Roots ([3]; rate 8 kg/ha) [%],% Control ([3]; rate 40 kg/ha) [%],% Galled Roots ([3]; rate 40 kg/ha) [%],% Control ([4]; rate 8 kg/ha) [%],#cysts/plant ([4]; rate 8 kg/ha),% Control ([4]; rate 40 kg/ha) [%],#cysts/plant ([4]; rate 40 kg/ha),nematode control (in words) [3],"IC30 ([1]; 4 h, read-out: IC30 C. elegans vs. L1) [µg/mL]","IC30 ([1]; 4 h, read-out: IC30 C. elegans vs. L4) [µg/mL]",IC30 ([2]; 24 h) [µg/mL]
CCCCCCCCCCCC(C)=O [2-tridecanone],3.2,12.5,50,97,2,100,0,80,10,96,2,,,,
CCCCCCCCCCCCCC(C)=O [2-pentadecanone],12.5,> 100,400,25,45,37,38,,,,,demonstrated nematode control,,,
CCCCCCCCCCC(C)=O [2-dodecanone],3.2,25,50,,,,,,,,,,,,
CCCCCCCC(C)=O [2-nonanone],12.5,> 400,200,,,,,,,,,,,,
CCCCCCCCCC(C)=O [2-undecanone],,,,35,39,65,21,,,,,demonstrated nematode control,6.3,25,50
CCCCCCCCC(C)=O [2-decanone],6.3,> 400,25,,,,,,,,,,,,
CCCCCC(C)=O [2-heptanone],> 400,> 400,400,,,,,,,,,,,,
CCCCCCCCCCCCC(C)=O [2-tetradecanone],3.2,> 100,25,,,,,,,,,,,,
